Molecules are shown by their SMILES.

In assay [1] the test system is cells originating from human solid tumours. Kind of assay: In vitro cytotoxicity, human solid tumour cells compared with murine leukaemias. The format is cell-based. Conditions: versus P388 and L1210. How it is done: (§1) Six cell lines were used:
(§2) The cells are cultured in RPMI 1640 complete culture medium containing 10% fetal calf serum, 2 mM glutamine, 50 units/ml of penicillin, 50 μg/ml of streptomycin and 10 mM Hepes, pH=7.4. The cells are distributed on microtitre plates and exposed to the cytotoxic compounds. The cells are then incubated for 2 days (P388, L1210) or 4 days (A549, KB-A1, KB-3-1, IGROV1). The number of viable cells is then quantified by means of a calorimetric assay, the Microculture Tetrazolium Assay (Cancer Res. 1987, 47, 939-942).
(§3) The results are expressed as IC50, the concentration of cytotoxic agent that inhibits the proliferation of the treated cells by 50%.

The subject of assay [2] is L1210 murine leukaemia cells. Kind of assay: In vitro cytotoxicity (Microculture Tetrazolium Assay), L1210. It is filed as cell-based. Conditions: Mus musculus, 48 h; L1210, 2 days incubation; read-out: IC50, concentration that inhibits the proliferation of the treated cells by 50%. How it is done:
as §1, §2, §3

In assay [3] the test system is A549 human non-small-cell lung carcinoma cells. Kind of assay: In vitro cytotoxicity (Microculture Tetrazolium Assay), A549. Conditions: 96 h, A549, 4 days incubation, read-out: IC50, concentration that inhibits the proliferation of the treated cells by 50%. The format is cell-based. How it is done: as §1
1 human non-small-cell lung carcinoma, A549,
as §2, §3

For a further assay, the system named is P388 leukaemia. Kind of assay: In vivo anti-tumour activity on the P388 leukaemia. On the set-up: species or system female BDF1 mice. Conditions: intraperitoneal, once per day for 4 days (D1-4). The protocol:
Line P388 (murine leukaemia) was supplied by the National Cancer Institute (Frederick, U.S.A.). The tumour cells (10^6 cells) were inoculated on day 0 into the peritoneal cavity of female BDF1 mice (Iffa-Credo, France) weighing from 18 to 20 g (groups of 6 animals). The products were administered by the intraperitoneal route once per day for 4 days (D1-4) at the doses indicated.
(§4) The anti-tumour activity is expressed as % T/C: [formula]

The test system of assay [4] is KB-3-1 human epidermoid carcinoma cells. Kind of assay: In vitro cytotoxicity (Microculture Tetrazolium Assay), KB-3-1. It is filed as cell-based. Conditions: 96 h, KB-3-1, 4 days incubation, read-out: IC50, concentration that inhibits the proliferation of the treated cells by 50%. The protocol:
as §1
(§5) 1 human epidermoid carcinoma, KB-3-1 , and the corresponding resistant line, KB-A 1, the multi-drug, resistance of which was produced using adriamycin (ADR),
as §2, §3

In assay [5] the test system is IGROV1 human ovarian carcinoma cells. Kind of assay: In vitro cytotoxicity (Microculture Tetrazolium Assay), IGROV1. Conditions: IGROV-1, 96 h, IGROV1, 4 days incubation, read-out: IC50, concentration that inhibits the proliferation of the treated cells by 50%. It is filed as cell-based. The protocol:
as §1
1 human ovarian carcinoma, IGROV1.
as §2, §3

Assay [6] relates to P388 murine leukaemia cells. Kind of assay: In vitro cytotoxicity (Microculture Tetrazolium Assay), P388. Conditions: Mus musculus, 48 h; P388, 2 days incubation; read-out: IC50, concentration that inhibits the proliferation of the treated cells by 50%. The format is cell-based. How it is done:
as §1, §2, §3

The next assay concerns IGROV1 ovarian carcinoma. Kind of assay: In vivo anti-tumour activity on the IGROV1 ovarian carcinoma. On the set-up: species or system nude BABL/C mice. Conditions: 200 mg/kg, intraperitoneal, once per week on days 4, 11 and 18. The protocol: as §4
IGROV1 tumour cells (10^7 cells) were incubated on day 0 in the peritoneal cavity of nude BABL/C mice (groups of 5 animals). The products were administered by the intraperitoneal route once per week on days 4, 11 and 18. The anti-tumour activity is expressed as % T/C as defined hereinbefore. The compound of Example 8 is active at the 200 mg/kg dose and increases the survival of the treated animals by 60% (T/C=160%).

Assay [7] deals with KB-A1 multi-drug resistant (adriamycin) human epidermoid carcinoma cells. Kind of assay: In vitro cytotoxicity (Microculture Tetrazolium Assay), KB-A1. The format is cell-based. Conditions: 96 h, KB-A1, 4 days incubation, read-out: IC50, concentration that inhibits the proliferation of the treated cells by 50%. How it is done:
as §1, §5, §2, §3

For another assay, the system named is L1210 cells. Kind of assay: Action on the cell cycle. The format is cell-based, murine. Conditions: 500 nM, 21 hours, 37° C.; control: 20%. How it is done: L1210 cells are incubated for 21 hours at 37° C. in the presence of different concentrations of the products being tested. The cells are then fixed using 70% (v/v) ethanol, washed twice in PBS and incubated for 30 minutes at 20° C. in PBS containing 100 μg/ml of RNase and 50 μg/ml of propidium iodide. The results are expressed as the percentage of cells that have accumulated in the G2+M phase after 21 hours, compared to the control (control: 20%). At a concentration of 500 nM, the compound of Example 8 causes 80-90% of the cells to accumulate in the G2+M phase after 21 hours.

Consider `O=C1c2scc(-c3ccc(O)c(O)c3)c2-n2cccc21` [Example 8, 3-(3,4-Dihydroxyphenyl)-8H-thieno[2,3-b]pyrrolizin-8-one], for which, in [1], the “effect on cells originating from human solid tumours compared with the two murine leukaemias” value is given as “more potent effect on the cells originating from human solid tumours than on the two murine leukaemias”. The IC50 came to 222 nM in assay [2]; 122 nM in assay [3]; 33 nM in assay [4]; 56 nM in assay [5]; 356 nM in assay [6]; 22 nM in assay [7]. For the same compound, the minimal effective dose with P388 leukaemia (Mus musculus, P388, ip, read-out: dose from which the compound is active) was no less than 25 mg/kg. The “increase in survival of the treated animals” value is listed as 70% in the assay on P388 leukaemia (active from the 25 mg/kg dose) and 60% in the assay with IGROV1 ovarian carcinoma. In addition, the T/C (usually the ratio of treated to control) in the assay with IGROV1 ovarian carcinoma was found to be 160%. For the same compound, the “percentage of cells that have accumulated in the G2+M phase” value with L1210 cells is listed as 80-90%.

The record behind these values is US6071945A, “8H-thieno-[2,3-b]pyrrolizin-8-one compounds” (Adir et Compagnie, priority 1998, dated 2000).
